Patent US7332501B2, “Indol-3-yl-carbonyl-spiro-piperidine derivatives as V1a receptor antagonists” (Hoffmann-La Roche Inc., priority 2005, dated 2008)
Where a name gives a salt, the structure may show the parent alone.

Target: T1, human V1a receptor (Homo sapiens, UniProt P37288)
T1 construct: expressed in transfected cells; host or cells: HEK293 cells, transiently transfected; cell membranes
Test: human V1a receptor binding (3H-Vasopressin SPA, HEK293 membranes)
Conditions: displacement of 4 nM 3H-Vasopressin, membranes of HEK293 cells transiently transfected with human V1a receptor; Ki from IC50 by Cheng-Prussoff
In short: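 Ki derived by Cheng-Prusoff from IC50 curves normalised to specific binding. Serially diluted compounds (in 2% DMSO) competed with 3H-vasopressin (4 nM working solution) for 1 h at room temperature on SPA beads bearing membranes of transiently transfected HEK293 cells; unlabelled vasopressin defined non-specific counts.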

T1 sequence (P37288 whole entry): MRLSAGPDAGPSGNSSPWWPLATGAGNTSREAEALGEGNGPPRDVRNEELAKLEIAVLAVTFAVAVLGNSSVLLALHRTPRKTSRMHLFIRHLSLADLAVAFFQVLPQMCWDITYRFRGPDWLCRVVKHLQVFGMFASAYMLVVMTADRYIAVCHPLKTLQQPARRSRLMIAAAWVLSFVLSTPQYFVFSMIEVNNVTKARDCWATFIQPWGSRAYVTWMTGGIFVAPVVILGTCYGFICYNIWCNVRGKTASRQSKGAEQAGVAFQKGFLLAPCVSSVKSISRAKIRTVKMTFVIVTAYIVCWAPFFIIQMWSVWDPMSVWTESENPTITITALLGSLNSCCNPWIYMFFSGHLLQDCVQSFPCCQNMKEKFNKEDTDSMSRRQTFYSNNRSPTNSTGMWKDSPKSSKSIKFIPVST

Row | Ki | SMILES
1 | 1.5 nM | O=C(c1cn(CC2CNCCO2)c2cc(Cl)ccc12)N1CCC2(CC1)OCc1ccccc12 (stereo not drawn) [Example 248, 1′-{[6-Chloro-1-(morpholin-2-ylmethyl)-1H-indol-3-yl]carbonyl}-3H-spiro[2-benzofuran-1,4′-piperidine]hydrochloride]
2 | 4.1 nM | NC(=O)Cn1cc(C(=O)N2CCC3(CC2)OCc2ccccc23)c2ccc(Cl)cc21 [Example 250, 2-[6-Chloro-3-(1′H,3H-spiro[2-benzofuran-1,4′-piperidin]-1′-ylcarbonyl)-1H-indol-1-yl]acetamide]
3 | 2.1 nM | CNCCNC(=O)Cn1cc(C(=O)N2CCC3(CC2)OCc2ccccc23)c2ccc(Cl)cc21 [Example 251, 2-[6-Chloro-3-(1′H,3H-spiro[2-benzofuran-1,4′-piperidin]-1′-ylcarbonyl)-1H-indol-1-yl]-N-[2-(methylamino)ethyl]acetamide]
4 | 2.3 nM | NCCNC(=O)Cn1cc(C(=O)N2CCC3(CC2)OCc2ccccc23)c2ccc(Cl)cc21 [Example 252, N-(2-Aminoethyl)-2-[6-chloro-3-(1′H,3H-spiro[2-benzofuran-1,4′-piperidin]-1′-ylcarbonyl)-1H-indol-1-yl]acetamide]
5 | 7.7 nM | NCCn1cc(C(=O)N2CCC3(CC2)OCc2ccccc23)c2ccc(Cl)cc21 [Example 253, 2-[6-Chloro-3-(1′H,3H-spiro[2-benzofuran-1,4′-piperidin]-1′-ylcarbonyl)-1H-indol-1-yl]ethanamine]
6 | 1.9 nM | CNCCn1cc(C(=O)N2CCC3(CC2)OCc2ccccc23)c2ccc(Cl)cc21 [Example 254, 2-[6-Chloro-3-(1′H,3H-spiro[2-benzofuran-1,4′-piperidin]-1′-ylcarbonyl)-1H-indol-1-yl]-N-methylethanamine]
7 | 1.4 nM | CNC(=O)Cn1cc(C(=O)N2CCC3(CC2)OCc2ccccc23)c2ccc(Cl)cc21 [Example 255, 2-[6-Chloro-3-(1′H,3H-spiro[2-benzofuran-1,4′-piperidin]-1′-ylcarbonyl)-1H-indol-1-yl]-N-methylacetamide]
8 | 3.7 nM | O=C(c1cn(CC2CO2)c2cc(Cl)ccc12)N1CCC2(CC1)OCc1ccccc12 (stereo not drawn) [Example 258, 1′-{[6-Chloro-1-(oxiran-2-ylmethyl)-1H-indol-3-yl]carbonyl}-3H-spiro[2-benzofuran-1,4′-piperidine]]
9 | 2.6 nM | O=C(c1cn(CCO)c2cc(Cl)ccc12)N1CCC2(CC1)OCc1ccccc12 [Example 259, 2-[6-Chloro-3-(1′H,3H-spiro[2-benzofuran-1,4′-piperidin]-1′-ylcarbonyl)-1H-indol-1-yl]ethanol]
10 | 2.8 nM | Cc1cc(Cn2cc(C(=O)N3CCC4(CC3)OCc3ccccc34)c3ccc(Cl)cc32)ccn1 [Example 260, 1′-({6-Chloro-1-[(2-methylpyridin-4-yl)methyl]-1H-indol-3-yl}carbonyl)-3H-spiro[2-benzofuran-1,4′-piperidine]]
11 | 1.7 nM | O=C(c1cn(C[C@H]2CCCNC2)c2cc(Cl)ccc12)N1CCC2(CC1)OCc1ccccc12 [Example 261, 1′-({6-Chloro-1-[(3S)-piperidin-3-ylmethyl]-1H-indol-3-yl}carbonyl)-3H-spiro[2-benzofuran-1,4′-piperidine]]
12 | 4.3 nM | O=C(c1cn(CCNO)c2cc(Cl)ccc12)N1CCC2(CC1)OCc1ccccc12 [Example 262, 2-[6-Chloro-3-(1′H,3H-spiro[2-benzofuran-1,4′-piperidin]-1′-ylcarbonyl)-1H-indol-1-yl]-N-hydroxyethanamine]
13 | 2.7 nM | O=C(c1cn(CC2CCNC2)c2cc(Cl)ccc12)N1CCC2(CC1)OCc1ccccc12 (stereo not drawn) [Example 266, 1′-{[6-Chloro-1-(pyrrolidin-3-ylmethyl)-1H-indol-3-yl]carbonyl}-3H-spiro[2-benzofuran-1,4′-piperidine]]
14 | 1.3 nM | CC(=O)NCCn1cc(C(=O)N2CCC3(CC2)OCc2ccccc23)c2ccc(Cl)cc21 [Example 270, N-{2-[6-Chloro-3-(1′H,3H-spiro[2-benzofuran-1,4′-piperidin]-1′-ylcarbonyl)-1H-indol-1-yl]ethyl}acetamide]
15 | 1.5 nM | CS(=O)(=O)NCCn1cc(C(=O)N2CCC3(CC2)OCc2ccccc23)c2ccc(Cl)cc21 [Example 271, N-{2-[6-Chloro-3-(1′H,3H-spiro[2-benzofuran-1,4′-piperidin]-1′-ylcarbonyl)-1H-indol-1-yl]ethyl}methanesulfonamide]
16 | 1.3 nM | CC(=O)N(C)CCn1cc(C(=O)N2CCC3(CC2)OCc2ccccc23)c2ccc(Cl)cc21 [Example 272, N-{2-[6-Chloro-3-(1′H,3H-spiro[2-benzofuran-1,4′-piperidin]-1′-ylcarbonyl)-1H-indol-1-yl]ethyl}-N-methylacetamide]
17 | 1.1 nM | CN(CCn1cc(C(=O)N2CCC3(CC2)OCc2ccccc23)c2ccc(Cl)cc21)S(C)(=O)=O [Example 273, N-{2-[6-Chloro-3-(1′H,3H-spiro[2-benzofuran-1,4′-piperidin]-1′-ylcarbonyl)-1H-indol-1-yl]ethyl}-N-methylmethanesulfonamide]
18 | 5.2 nM | Cc1[nH]c2cc(Cl)ccc2c1C(=O)N1CCC2(CC1)OCc1ccccc12 [Example 277, 1′-[(6-Chloro-2-methyl-1H-indol-3-yl)carbonyl]-3H-spiro[2-benzofuran-1,4′-piperidine]]
19 | 67.6 nM | O=C(c1c[nH]c2cc(Cl)ccc12)N1CCC2(CC1)C(=O)Nc1ccc(Br)cc12 [Example 280, 5-Bromo-1′-[(6-chloro-1H-indol-3-yl)carbonyl]spiro[indole-3,4′-piperidin]-2(1H)-one]
20 | 63.1 nM | CNC(=O)Cn1cc(C(=O)N2CCC3(CC2)NC(=O)c2ccccc23)c2ccc(Cl)cc21 [Example 283, 2-{6-Chloro-3-[(3-oxo-2,3-dihydro-1′H-spiro[isoindole-1,4′-piperidin]-1′-yl)carbonyl]-1H-indol-1-yl}-N-methylacetamide]
21 | 138 nM | O=C(c1c[nH]c2cc(Cl)ccc12)N1CCC2(CC1)NCc1ccccc12 [Example 284, 1′-[(6-Chloro-1H-indol-3-yl)carbonyl]-2,3-dihydrospiro[isoindole-1,4′-piperidine]]

Row | SMILES | Ki
22 | CN(C)CCNC(=O)Cn1cc(C(=O)N2CCC3(CC2)OCc2ccccc23)c2ccc(Cl)cc21 [Example 249, 2-[6-Chloro-3-(1′H,3H-spiro[2-benzofuran-1,4′-piperidin]-1′-ylcarbonyl)-1H-indol-1-yl]-N-[2-(dimethylamino)ethyl]acetamide] | 2.4 nM
23 | O=C(c1cn(CCN2CCOCC2)c2cc(Cl)ccc12)N1CCC2(CC1)OCc1ccccc12 [Example 256, 1′-{[6-Chloro-1-(2-morpholin-4-ylethyl)-1H-indol-3-yl]carbonyl}-3H-spiro[2-benzofuran-1,4′-piperidine]] | 2.4 nM
24 | O=C(c1cn(CCCN2CCOCC2)c2cc(Cl)ccc12)N1CCC2(CC1)OCc1ccccc12 [Example 257, 1′-{[6-Chloro-1-(3-morpholin-4-ylpropyl)-1H-indol-3-yl]carbonyl}-3H-spiro[2-benzofuran-1,4′-piperidine]] | 3.1 nM
25 | O=C(c1cn(CC2CCOCC2)c2cc(Cl)ccc12)N1CCC2(CC1)OCc1ccccc12 [Example 263, 1′-{[6-Chloro-1-(tetrahydro-2H-pyran-4-ylmethyl)-1H-indol-3-yl]carbonyl}-3H-spiro[2-benzofuran-1,4′-piperidine]] | 1.7 nM
26 | CN1CCC(Cn2cc(C(=O)N3CCC4(CC3)OCc3ccccc34)c3ccc(Cl)cc32)C1 (stereo not drawn) [Example 264, 1′-({6-Chloro-1-[(1-methylpyrrolidin-3-yl)methyl]-1H-indol-3-yl}carbonyl)-3H-spiro[2-benzofuran-1,4′-piperidine]] | 1.8 nM
27 | CN1CCC[C@H](Cn2cc(C(=O)N3CCC4(CC3)OCc3ccccc34)c3ccc(Cl)cc32)C1 [Example 265, 1′-[(6-Chloro-1-{[(3S)-1-methylpiperidin-3-yl]methyl}-1H-indol-3-yl)carbonyl]-3H-spiro[2-benzofuran-1,4′-piperidine]] | 1.4 nM
28 | CN1CCC[C@H]1Cn1cc(C(=O)N2CCC3(CC2)OCc2ccccc23)c2ccc(Cl)cc21 [Example 268] | 0.07 nM
29 | CN1CCC[C@@H]1Cn1cc(C(=O)N2CCC3(CC2)OCc2ccccc23)c2ccc(Cl)cc21 [Example 269] | 1 nM
30 | CC(C)(C)OC(=O)N1CCn2c(c(C(=O)N3CCC4(CC3)OCc3ccccc34)c3ccccc32)C1 [Example 274, tert-Butyl 10-(1′H,3H-spiro[2-benzofuran-1,4′-piperidin]-1′-ylcarbonyl)-3,4-dihydropyrazino[1,2-a]indole-2(1H)-carboxylate] | 25.1 nM
31 | O=C(c1c2n(c3ccccc13)CCNC2)N1CCC2(CC1)OCc1ccccc12 [Example 275, 1′-(1,2,3,4-Tetrahydropyrazino[1,2-a]indol-10-ylcarbonyl)-3H-spiro[2-benzofuran-1,4′-piperidine]hydrochloride] | 15.7 nM
32 | CN1CCn2c(c(C(=O)N3CCC4(CC3)OCc3ccccc34)c3ccccc32)C1 [Example 276, 1′-[(2-Methyl-1,2,3,4-tetrahydropyrazino[1,2-a]indol-10-yl)carbonyl]-3H-spiro[2-benzofuran-1,4′-piperidine]] | 12 nM
33 | Cc1c(C(=O)N2C[C@@H](C)[C@]3(OC(=O)c4ccccc43)[C@@H](C)C2)c2ccccc2n1Cc1ccccc1 [Example 281, (1R,3′R,5′S)-1′-[(1-Benzyl-2-methyl-1H-indol-3-yl)carbonyl]-3′,5′-dimethyl-3H-spiro[2-benzofuran-1,4′-piperidin]-3-one] | 19.1 nM
